pIC50: −log10 of the molar value. One block for each compound: values may come before it.
Test system: 883617-216-R-J1-PDC tumor spheroids, viability
Assay: Anticancer human tumor 883617-216-R-J1-PDC patient-derived bladder carcinoma cell line growth inhibition [PI3K]
Conditions: spheroids with HUVEC and MSC; for pIC50: curve of first compound; for viability, T/C: stronger effect = lower value
Source text: Combinatorial screen of targeted agents with the PI3K inhibitors inavolisib, alpelisib, duvelisib, and copanlisib in multi-cell type tumor spheroids
A high-throughput screen of multi-cell type tumor spheroids was designed to identify active combinations of targeted small molecules and PI3K pathway inhibitors. Complex spheroids include a stromal component modeled by human endothelial cells (HUVEC) and fibroblasts modeled by human mesenchymal stem cells (MSCs). The concentration ranges selected for each drug and investigational agent were based upon clinically achievable concentrations if the clinical Cmax of the agent was known.
Compounds. The drugs and investigational agents: inavolisib (NSC800729), alpelisib (NSC765974), duvelisib (NSC772469), copanlisib (NSC816437), ipatasertib (NSC767898), afuresertib (NSC778305), talazoparib (NSC767125), sapanisertib (NSC764658), selumetinib (NSC741078), tovorafenib (DAY101, NSC766906), vemurafenib (NSC761431), ravoxertinib (NSC781343), sotorasib (NSC818433), MRTX1133 (NSC 836407), abemaciclib (NSC 768073), palbociclib (NSC758247), venetoclax (NSC 766270), SY5609 (NSC837396), enzalutamide (NSC755605), and darolutamide (NSC825331), were obtained from the National Cancer Institute (NCI) Developmental Therapeutics Program Chemical Repository. The FDA-approved anticancer drug set is available from the NCI Developmental Therapeutics Program. […] The stock solutions were prepared in dimethyl sulfoxide (DMSO, Sigma-Aldrich, St. Louis, MO, cat. D2650) at 800-fold the tested concentration and stored at -70 degrees C prior to their use. All drugs and investigational agents were tested over a range starting from a high concentration at or near the clinical Cmax and decreasing in half-log increments. If the clinical Cmax for an agent had not been determined, the highest concentration tested was 10 microM.
Cell Culture. All cells were maintained in an incubator at 37 degrees C and 5% CO2 with 95% humidity. The PDC lines were cultured according to standard operating procedures established by the NCI PDMR (https://pdmr.cancer.gov/sops/default.htm). All PDCs were thawed and cultured in Matrigel-coated flasks prepared with a working solution of 1X Ham's F-12 nutrient mix, without supplementation (Invitrogen, Waltham, MA, cat. 11765054), 100 U/mL penicillin-streptomycin (Invitrogen, cat. 15140122), and 2.5% Matrigel (Corning Inc., Corning, NY, cat. 354248) for the first three passages. The 354836-022-R-J1-PDC, 475296-252-R-J1-PDC, and 997726-040-R-J2-PDC lines were cultured in 6A media, which includes advanced DMEM/F-12 (Thermo Fisher Scientific, cat. 12634028), 10 mM HEPES (Thermo Fisher Scientific, cat. 15630080), 1X GlutaMAX supplement (Thermo Fisher Scientific, cat. 35050061), 0.1 mg/mL primocin (InvivoGen, San Diego, CA, cat. ant-pm-2), 10% defined fetal bovine serum, heat inactivated (HyClone Laboratories Inc., Logan, UT, cat. SH30070.03HI), 50% L-WRN conditioned media (ATCC, cat. CRL-3276), 1.25 mM N-Acetyl-L-cysteine (Sigma-Aldrich, cat. A9165), 10 mM nicotinamide (Sigma-Aldrich, cat. N0636), 1X B-27 supplement (Thermo Fisher Scientific, cat. 17504044), 1X N-2 supplement (Thermo Fisher Scientific, cat. 17502048), and 10 microM Y-27632 dihydrochloride (Tocris Bioscience, Bristol, United Kingdom, cat. 1254). The 624824-186-R-J2-PDC line was cultured in 6C/Colon 1B media, which includes all 6A media components plus 50 ng/mL human EGF recombinant protein (Thermo Fisher Scientific, cat. PHG0311). […]

[1] = second compound 0.0316 µM, first compound 0.0316 µM
[2] = second compound 0.0316 µM, first compound 0.1 µM
[3] = second compound 0.1 µM, first compound 0.0316 µM
[4] = second compound 0.1 µM, first compound 0.1 µM
[5] = second compound 0.316 µM, first compound 0.0316 µM
[6] = second compound 0.316 µM, first compound 0.1 µM
[7] = second compound 1 µM, first compound 0.0316 µM
[8] = second compound 1 µM, first compound 0.1 µM
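Also: spheroids exposed to agents for 7 days before the viability read.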

pIC50 (second compound 0.00316 µM): 7.52
pIC50 (second compound 0.01 µM): 7.61
pIC50 (second compound 0.0316 µM): 8.15
pIC50 (second compound 0.1 µM): 9.48
pIC50 (second compound 0.316 µM): > 9.50
pIC50 (second compound 1 µM): > 9.50
Compound: CC(C)n1nc(-c2ccc3oc(N)nc3c2)c2c(N)ncnc21 + CC(Nc1ccc2c(c1)OCCn1cc(N3C(=O)OCC3C(F)F)nc1-2)C(N)=O
viability, T/C (second compound 0.00316 µM, first compound 0.000316 µM): 96.5%
viability, T/C (second compound 0.00316 µM, first compound 0.001 µM): 88.1%
viability, T/C (second compound 0.00316 µM, first compound 0.00316 µM): 75.4%
viability, T/C (second compound 0.00316 µM, first compound 0.01 µM): 72.1%
viability, T/C (second compound 0.00316 µM, first compound 0.0316 µM): 50.5%
viability, T/C (second compound 0.00316 µM, first compound 0.1 µM): 16.6%
viability, T/C (second compound 0.01 µM, first compound 0.000316 µM): 85.5%
viability, T/C (second compound 0.01 µM, first compound 0.001 µM): 76.4%
viability, T/C (second compound 0.01 µM, first compound 0.00316 µM): 75%
viability, T/C (second compound 0.01 µM, first compound 0.01 µM): 69.8%
viability, T/C (second compound 0.01 µM, first compound 0.0316 µM): 44.2%
viability, T/C (second compound 0.01 µM, first compound 0.1 µM): 19.6%
viability, T/C (second compound 0.0316 µM, first compound 0.000316 µM): 61.9%
viability, T/C (second compound 0.0316 µM, first compound 0.001 µM): 60.8%
viability, T/C (second compound 0.0316 µM, first compound 0.00316 µM): 54.4%
viability, T/C (second compound 0.0316 µM, first compound 0.01 µM): 49%
viability, T/C [1]: 31.4%
viability, T/C [2]: 16.6%
viability, T/C (second compound 0.1 µM, first compound 0.000316 µM): 52.2%
viability, T/C (second compound 0.1 µM, first compound 0.001 µM): 41.2%
viability, T/C (second compound 0.1 µM, first compound 0.00316 µM): 37.5%
viability, T/C (second compound 0.1 µM, first compound 0.01 µM): 32%
viability, T/C [3]: 22.1%
viability, T/C [4]: 11.5%
viability, T/C (second compound 0.316 µM, first compound 0.000316 µM): 31.9%
viability, T/C (second compound 0.316 µM, first compound 0.001 µM): 20.6%
viability, T/C (second compound 0.316 µM, first compound 0.00316 µM): 24.8%
viability, T/C (second compound 0.316 µM, first compound 0.01 µM): 15.8%
viability, T/C [5]: 14.4%
viability, T/C [6]: 10.2%
viability, T/C (second compound 1 µM, first compound 0.000316 µM): 17.4%
viability, T/C (second compound 1 µM, first compound 0.001 µM): 17.7%
viability, T/C (second compound 1 µM, first compound 0.00316 µM): 13.9%
viability, T/C (second compound 1 µM, first compound 0.01 µM): 11.2%
viability, T/C [7]: 11.5%
viability, T/C [8]: 5.87%

pIC50 (second compound 0.0316 µM): 5.38
pIC50 (second compound 0.1 µM): 5.33
pIC50 (second compound 0.316 µM): 5.34
pIC50 (second compound 1 µM): 5.41
pIC50 (second compound 3.16 µM): 5.44
pIC50 (second compound 10 µM): 5.77
Compound: CCCS(=O)(=O)Nc1ccc(F)c(C(=O)c2c[nH]c3ncc(-c4ccc(Cl)cc4)cc23)c1F + CC(Nc1ncnc2nc[nH]c12)c1cc2cccc(Cl)c2c(=O)n1-c1ccccc1
viability, T/C [1]: 94.8%
viability, T/C [2]: 92.3%
viability, T/C (second compound 0.0316 µM, first compound 0.316 µM): 97.1%
viability, T/C (second compound 0.0316 µM, first compound 1 µM): 102%
viability, T/C (second compound 0.0316 µM, first compound 3.16 µM): 63.4%
viability, T/C (second compound 0.0316 µM, first compound 10 µM): 9.37%
viability, T/C [3]: 85%
viability, T/C [4]: 91.8%
viability, T/C (second compound 0.1 µM, first compound 0.316 µM): 114%
viability, T/C (second compound 0.1 µM, first compound 1 µM): 85.1%
viability, T/C (second compound 0.1 µM, first compound 3.16 µM): 70.5%
viability, T/C (second compound 0.1 µM, first compound 10 µM): 10.7%
viability, T/C [5]: 91.8%
viability, T/C [6]: 91.1%
viability, T/C (second compound 0.316 µM, first compound 0.316 µM): 95%
viability, T/C (second compound 0.316 µM, first compound 1 µM): 97.1%
viability, T/C (second compound 0.316 µM, first compound 3.16 µM): 67.7%
viability, T/C (second compound 0.316 µM, first compound 10 µM): 11.3%
viability, T/C [7]: 99.9%
viability, T/C [8]: 89%
viability, T/C (second compound 1 µM, first compound 0.316 µM): 87.9%
viability, T/C (second compound 1 µM, first compound 1 µM): 72.4%
viability, T/C (second compound 1 µM, first compound 3.16 µM): 65.1%
viability, T/C (second compound 1 µM, first compound 10 µM): 9.68%
viability, T/C (second compound 3.16 µM, first compound 0.0316 µM): 75.3%
viability, T/C (second compound 3.16 µM, first compound 0.1 µM): 75.7%
viability, T/C (second compound 3.16 µM, first compound 0.316 µM): 72.1%
viability, T/C (second compound 3.16 µM, first compound 1 µM): 71.5%
viability, T/C (second compound 3.16 µM, first compound 3.16 µM): 55.2%
viability, T/C (second compound 3.16 µM, first compound 10 µM): 10.6%
viability, T/C (second compound 10 µM, first compound 0.0316 µM): 52.9%
viability, T/C (second compound 10 µM, first compound 0.1 µM): 57.4%
viability, T/C (second compound 10 µM, first compound 0.316 µM): 55.3%
viability, T/C (second compound 10 µM, first compound 1 µM): 66.5%
viability, T/C (second compound 10 µM, first compound 3.16 µM): 40.5%
viability, T/C (second compound 10 µM, first compound 10 µM): 11.8%
